{"source": "paper PMC6148246", "about": "“HS-1371, a novel kinase inhibitor of RIP3-mediated necroptosis” (Experimental & Molecular Medicine, 2018)", "key": {"HT-29 cells [1]": {"test_system": "HT-29 cells", "experiment": "TRAIL-induced necroptosis in HT-29 cells (immunoblot, MTT)", "type": "cell-based", "protocol": "HT-29 cells expressing RIP3 shRNA, MLKL shRNA, or non-silencing control were analyzed by western blotting (upper panel), and these cells were treated with TSZ (6 h for immunoblotting, 24 h for cell death assay). Cell lysates were analyzed by immunoblotting (middle panel), and cell viability was analyzed by MTT assay (bottom panel). The results are presented as means ± SEM. *P < 0.05, **P < 0.01, ***P < 0.001. b HS-1371 protected cells not only from TNF-induced necroptosis but also from TRAIL-induced necroptosis. HT-29 cells were pretreated with indicated concentrations of HS-1371 and then treated with TRAIL + Smac + zVAD (6 h for immunoblotting, 24 h for cell death assay). Cell lysates were analyzed by immunoblotting, and cell viability was analyzed by MTT assay or phase-contrast microscopy. The results are presented as means ± SEM. *P < 0.05, **P < 0.01, ***P < 0.001. c, d HS-1371 had no effect on TNF-induced apoptosis. HT-29 cells were pretreated with HS-1371 (5 μM) for 2 h and then treated with TC or TS (TNF + either cycloheximide or SMAC mimetic, hereafter referred to as TC or TS, 6 h for immunoblotting, 24 h (TC) or 36 h (TS) for cell death assay). Cell lysates were analyzed by immunoblotting, and cell viability was analyzed by MTT assay (TC) or CellTiter-Glo Luminescent Cell Viability Assay Kit (TS). The results are presented as means ± SEM. *P < 0.05, **P < 0.01, ***P < 0.001 […]"}, "HT-29 cells [2]": {"test_system": "HT-29 cells", "experiment": "TNF-induced apoptosis in HT-29 cells (TC or TS)", "type": "cell-based, human", "conditions": "HT-29, 5 μM pretreated 2 h", "protocol": "HT-29 cells expressing RIP3 shRNA, MLKL shRNA, or non-silencing control were analyzed by western blotting (upper panel), and these cells were treated with TSZ (6 h for immunoblotting, 24 h for cell death assay). Cell lysates were analyzed by immunoblotting (middle panel), and cell viability was analyzed by MTT assay (bottom panel). The results are presented as means ± SEM. *P < 0.05, **P < 0.01, ***P < 0.001. b HS-1371 protected cells not only from TNF-induced necroptosis but also from TRAIL-induced necroptosis. HT-29 cells were pretreated with indicated concentrations of HS-1371 and then treated with TRAIL + Smac + zVAD (6 h for immunoblotting, 24 h for cell death assay). Cell lysates were analyzed by immunoblotting, and cell viability was analyzed by MTT assay or phase-contrast microscopy. The results are presented as means ± SEM. *P < 0.05, **P < 0.01, ***P < 0.001. c, d HS-1371 had no effect on TNF-induced apoptosis. HT-29 cells were pretreated with HS-1371 (5 μM) for 2 h and then treated with TC or TS (TNF + either cycloheximide or SMAC mimetic, hereafter referred to as TC or TS, 6 h for immunoblotting, 24 h (TC) or 36 h (TS) for cell death assay). Cell lysates were analyzed by immunoblotting, and cell viability was analyzed by MTT assay (TC) or CellTiter-Glo Luminescent Cell Viability Assay Kit (TS). The results are presented as means ± SEM. *P < 0.05, **P < 0.01, ***P < 0.001"}, "necrosome complex": {"target": "T1, necrosome complex (Homo sapiens, UniProt Q9Y572)", "T1 construct": "endogenous in cells; host or cells: HT-29", "T1 sequence (Q9Y572 whole entry, one chain of several)": "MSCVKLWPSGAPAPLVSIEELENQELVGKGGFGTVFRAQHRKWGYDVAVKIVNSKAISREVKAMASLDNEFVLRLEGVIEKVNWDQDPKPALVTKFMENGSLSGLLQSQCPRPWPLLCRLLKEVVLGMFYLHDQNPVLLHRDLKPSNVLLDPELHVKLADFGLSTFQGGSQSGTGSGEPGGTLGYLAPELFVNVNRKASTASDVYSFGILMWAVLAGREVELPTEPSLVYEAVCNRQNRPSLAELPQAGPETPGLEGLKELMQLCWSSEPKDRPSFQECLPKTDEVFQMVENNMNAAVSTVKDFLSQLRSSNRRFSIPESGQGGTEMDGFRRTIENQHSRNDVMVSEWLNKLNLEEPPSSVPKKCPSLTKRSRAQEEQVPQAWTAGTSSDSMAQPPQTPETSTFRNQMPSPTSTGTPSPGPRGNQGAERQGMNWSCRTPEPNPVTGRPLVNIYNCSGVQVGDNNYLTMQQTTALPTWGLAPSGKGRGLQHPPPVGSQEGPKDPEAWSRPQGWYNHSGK", "experiment": "Necrosome complex formation, anti-RIP3 immunoprecipitation in HT-29 cells", "type": "cell-based", "conditions": "HT-29, 5 μM pretreated 2 h, TSZ 4 h", "protocol": "(§1) Cells were rinsed in cold phosphate-buffered saline (PBS) and lysed in M2 buffer containing 20 mM Tris at pH 7, 0.5% NP-40, 250 mM NaCl, 3 mM EDTA, 3 mM EGTA, 2 mM DTT, 0.5 mM PMSF, 20 mM β-glycerol phosphate, 1 mM sodium vanadate, and 1 μg/mL leupeptin. The cell extracts were subjected to western blot analysis. For immunoprecipitation, lysates were mixed and precipitated with antibody and protein A-agarose beads overnight or for 4 h at 4 °C. Bound proteins were removed by boiling in SDS and resolved by SDS-PAGE, and immunoblotting was visualized by enhanced chemiluminescence (ECL, Amersham).\nFig. 2 Novel inhibitors can block RIP3 S227 phosphorylation. a Western blotting showing various kinase inhibitor effects on RIP3 S227 auto-phosphorylation. HT-29 cells were treated with four tested kinase inhibitors (1308, 1336, 1338, and 1371, 10 μM) for 9 h. As a control, KK5101 (Trk alpha inhibitor) and HS829 (IKK beta inhibitor) were also treated at a concentration of 10 μM for 9 h. […] HT-29 cells were treated with 4 tested kinase inhibitors for 24 h, and cell viability was analyzed by MTT assay or phase-contrast microscopy. […] Cell lysates were analyzed by immunoblotting. f HT-29 cells were pretreated with Nec-1 (40 μM), DAB (5 μM) or HS-1371 (5 μM) for 2 h and then treated with TSZ for 4 h. […] Immunoprecipitates and total lysates were analyzed by Western blotting"}, "RIP3 [3]": {"target": "T2, RIP3 (Homo sapiens, UniProt Q9Y572)", "T2 sequence (Q9Y572 whole entry)": "as the sequence (Q9Y572 whole entry, one chain of several) above", "experiment": "Mechanism of action / ATP competition study with RIP3 enzyme", "type": "biochemical", "conditions": "20 min pre-incubation; Michaelis-Menten and Lineweaver-Burk plots", "protocol": "To understand the interaction modes of these inhibitors within RIP3, the mechanisms of action studies including ATP competition were further performed with HS-1371. A 20 min pre-incubation of the compound and RIP3 enzyme was performed to ensure HS-1371 binding to the enzyme and equilibration. The reactions were monitored every 5–15 min to obtain progress curves with a time course. At each time point, radioisotope signal (^33P) was converted into M phosphate transferred to substrate and was plotted against time. The slopes (or velocity; M/min) were then plotted against ATP concentrations to generate a Michaelis–Menten plot and a subsequent Lineweaver–Burk plot (double-reciprocal plot) using GraphPad Prism software (GraphPad Software Inc., San Diego, CA). The results were further analyzed with global fit using GraFit software."}, "[4]": {"test_system": "RIP3 or MLKL-deficient cells", "experiment": "TSZ treatment of RIP3 or MLKL knockdown HT-29 cells (MTT assay)", "type": "cell-based, human", "conditions": "HT-29 shRIP3 or shMLKL, TSZ 24 h", "protocol": "MISSION short-hairpin RNA (shRNA) plasmids targeting hRIP3 mRNA (NM_006871), hMLKL mRNA (NM_152649), and non-targeting control sequences (NM_027088) were obtained from Sigma-Aldrich. Lentiviral plasmids were transfected into 293TN cells (System Biosciences, LV900A-1) using Lipofectamine 2000 (Invitrogen, 11668019). Pseudoviral particles were collected 2 days after the transfection and infected into cells with polybrene (8 μg/mL). Infected cells were puromycin selected two days after infection, and knockdown was confirmed by immunoblotting.\nHT-29 cells expressing RIP3 shRNA, MLKL shRNA, or non-silencing control were analyzed by western blotting (upper panel), and these cells were treated with TSZ (6 h for immunoblotting, 24 h for cell death assay). Cell lysates were analyzed by immunoblotting (middle panel), and cell viability was analyzed by MTT assay (bottom panel). The results are presented as means ± SEM. *P < 0.05, **P < 0.01, ***P < 0.001. b HS-1371 protected cells not only from TNF-induced necroptosis but also from TRAIL-induced necroptosis. […] Cell lysates were analyzed by immunoblotting, and cell viability was analyzed by MTT assay or phase-contrast microscopy. […] Cell lysates were analyzed by immunoblotting, and cell viability was analyzed by MTT assay (TC) or CellTiter-Glo Luminescent Cell Viability Assay Kit (TS). […]"}, "RIP3 [5]": {"target": "T2, RIP3", "experiment": "Basal S227 auto-phosphorylation of RIP3 in HT-29 cells (immunoblot)", "type": "cell-based", "parameters": "RIP3-expressing HT-29 cells; endogenous in cells; host or cells: HT-29", "conditions": "10 μM, 9 h", "protocol": "as §1\nRIP3 kinase activity is essential for TNF-induced necroptosis, and human S227 auto-phosphorylation sites of RIP3 are required for the interaction of RIP3 with its substrate MLKL[13],[14], which is indispensable for downstream necroptotic cell death signaling. To test the possible effects of the RIP3 inhibitors on necroptosis, HT-29 cells were treated with the kinase inhibitors, and RIP3 kinase activity was determined by examining its phosphorylation status.\nFig. 2 Novel inhibitors can block RIP3 S227 phosphorylation. a Western blotting showing various kinase inhibitor effects on RIP3 S227 auto-phosphorylation. HT-29 cells were treated with four tested kinase inhibitors (1308, 1336, 1338, and 1371, 10 μM) for 9 h. As a control, KK5101 (Trk alpha inhibitor) and HS829 (IKK beta inhibitor) were also treated at a concentration of 10 μM for 9 h. Prototypical necroptosis stimuli (TNF + zVAD + either cycloheximide or SMAC mimetic; hereafter referred to as TCZ or TSZ) were applied for 6 h. […] HT-29 cells were treated with 4 tested kinase inhibitors for 24 h, and cell viability was analyzed by MTT assay or phase-contrast microscopy. […] HT-29 cells were pretreated with necrostatin-1 (Nec-1, 40 μM), dabrafenib (DAB, 10 μM) or necrosulfonamide (NSA, 1 μM) for 2 h and then treated with TSZ for 6 h. […] HT-29 cells were pretreated with four tested kinase inhibitors for 2 h and then treated with TSZ for 6 h. Cell lysates were analyzed by immunoblotting. f HT-29 cells were pretreated with Nec-1 (40 μM), DAB (5 μM) or HS-1371 (5 μM) for 2 h and then treated with TSZ for 4 h. Cell lysates were immunoprecipitated with anti-RIP3 antibody. Immunoprecipitates and total lysates were analyzed by Western blotting"}}}
{"smiles": "Cc1ccc(Oc2ccnc3cc(-c4cnn(C5CCNCC5)c4)ccc23)cc1", "note": "[HS-1371, 7-(1-(Piperidin-4-yl)-1H-pyrazol-4-yl)-4-(p-tolyloxy)quinoline]", "values": [{"measurement": "TRAIL-induced S227 phosphorylation of RIP3 and RIP3-mediated phosphorylation of MLKL", "setting": "HT-29 cells [1]; HT-29, TRAIL + Smac mimetic + zVAD 6 h, dose-dependent", "value": "decreased"}, {"measurement": "TRAIL-induced cytotoxicity", "setting": "HT-29 cells [1]; HT-29, TRAIL + Smac mimetic + zVAD 24 h, MTT", "value": "reduction in cytotoxicity"}, {"measurement": "apoptosis induced by TNF plus CHX", "setting": "HT-29 cells [2]; TC 24 h, MTT", "value": "did not inhibit"}, {"measurement": "apoptosis induced by TNF plus Smac mimetic", "setting": "HT-29 cells [2]; TS 36 h, CellTiter-Glo", "value": "did not inhibit"}, {"measurement": "necrosome complex formation (MLKL recruitment)", "setting": "necrosome complex", "value": "blocked necrosome complex formation"}, {"measurement": "mechanism of action upon binding to RIP3", "setting": "RIP3 [3]", "value": "time-independent and ATP-competitive"}, {"measurement": "cell viability in RIP3 or MLKL-deficient cells treated with TSZ", "setting": "[4]", "value": "did not obviously affect cell viability"}, {"measurement": "effect on S227 auto-phosphorylation of RIP3 at the basal level", "setting": "RIP3 [5]", "value": "inhibitory effect"}]}
